The record followed here is patent publication US10647713B2 (Nimbus Lakshmi, Inc., priority 2016, dated 2020).

human TYK2 (JH2domain-pseudokinase), sequence (P29597 556-888): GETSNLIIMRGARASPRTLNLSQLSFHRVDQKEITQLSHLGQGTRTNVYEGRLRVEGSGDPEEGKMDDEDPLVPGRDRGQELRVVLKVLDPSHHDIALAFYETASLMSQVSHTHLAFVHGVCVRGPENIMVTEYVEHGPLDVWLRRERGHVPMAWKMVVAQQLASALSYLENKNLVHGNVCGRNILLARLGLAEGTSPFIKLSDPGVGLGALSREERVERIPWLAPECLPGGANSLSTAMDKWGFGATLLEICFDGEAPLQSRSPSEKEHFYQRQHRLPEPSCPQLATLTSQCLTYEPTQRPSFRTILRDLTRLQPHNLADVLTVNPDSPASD

This test has as its target human TYK2 (JH2domain-pseudokinase) (Homo sapiens (Human), UniProt P29597). In words: TYK2 JH2 Domain Binding Assay (KINOMEscan, DiscoveRx). The settings on record: 11-point dilution, duplicate. The gist of the method: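 TYK2 JH2 (G556–D888)–NFkB DBD fusion, DNA-tagged, from HEK293 extracts (<0.1 nM) competed against immobilised biotinylated ligand for 1 h at room temperature, 0.9% DMSO. Bead-retained kinase quantified by qPCR; Kd from 11-point 3-fold series (top 30,000 nM, duplicate), Hill fit with slope −1.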
The term Kd denotes the equilibrium constant for the complex coming apart. Low readings indicate tighter binding, high ones weaker binding. The compound `CS(=O)(=O)c1cc(F)ccc1Nc1cc(Nc2cccc(C#N)n2)nc2[nH]c(C(F)F)nc12` [I-552, 6-((2-(difluoromethyl)-7-((4-fluoro-2-(methylsulfonyl)phenyl)amino)-3H-imidazo[4,5-b]pyridin-5-yl)amino)picolinonitrile] returned a Kd of 0.1 to 0.5 nM.

For `Cc1nc2c(Nc3ccc(F)cc3S(C)(=O)=O)cc(Nc3cccc(C#N)n3)nc2[nH]1` [I-553, 6-((7-((4-fluoro-2-(methylsulfonyl)phenyl)amino)-2-methyl-3H-imidazo[4,5-b]pyridin-5-yl)amino)picolinonitrile], the Kd was in the range of 0.1 to 0.5 nM.

The compound `COc1cc(-c2nn(C)cc2C)ccc1Nc1cc(NC(=O)C2CC2)nc2[nH]c(C(F)F)nc12` [I-554, N-(2-(difluoromethyl)-7-((4-(1,4-dimethyl-1H-pyrazol-3-yl)-2-methoxyphenyl)amino)-3H-imidazo[4,5-b]pyridin-5-yl)cyclopropanecarboxamide] showed a Kd of 1 to 10 nM. `COc1cc(-c2nn(C)cc2C)ccc1Nc1cc(NC(=O)C2CC2)nc2[nH]c(C)nc12` [I-555, N-(7-((4-(1,4-dimethyl-1H-pyrazol-3-yl)-2-methoxyphenyl)amino)-2-methyl-3H-imidazo[4,5-b]pyridin-5-yl)cyclopropanecarboxamide] came in with an equilibrium dissociation constant (Kd) of 0.5 to 1 nM. The compound `COc1c(Nc2cc(NC(=O)C3CC3)nc3[nH]c(C(F)F)nc23)ccc(-c2nn(C)cc2C)c1F` [I-556, N-(2-(difluoromethyl)-7-((4-(1,4-dimethyl-1H-pyrazol-3-yl)-3-fluoro-2-methoxyphenyl)amino)-3H-imidazo[4,5-b]pyridin-5-yl)cyclopropanecarboxamide] registered a dissociation constant Kd of over 10 nM.

For `COc1c(Nc2cc(NC(=O)C3CC3)nc3[nH]c(C)nc23)ccc(-c2nn(C)cc2C)c1F` [I-557, N-(7-((4-(1,4-dimethyl-1H-pyrazol-3-yl)-3-fluoro-2-methoxyphenyl)amino)-2-methyl-3H-imidazo[4,5-b]pyridin-5-yl)cyclopropanecarboxamide], the Kd was over 10 nM. With `COc1c(Nc2cc(Nc3cccc(C#N)n3)nc3[nH]c(C(F)F)nc23)cccc1-c1nccs1` [I-558, 6-((2-(difluoromethyl)-7-((2-methoxy-3-(thiazol-2-yl)phenyl)amino)-3H-imidazo[4,5-b]pyridin-5-yl)amino)picolinonitrile], the Kd lay in the range of 1 to 10 nM.

`COc1cc(-c2nc(C)c(C)s2)ccc1Nc1cc(NC(=O)C2CC2)nc2[nH]c(C)nc12` [I-559, N-(7-((4-(4,5-dimethylthiazol-2-yl)-2-methoxyphenyl)amino)-2-methyl-3H-imidazo[4,5-b]pyridin-5-yl)cyclopropanecarboxamide] showed a Kd of 1 to 10 nM. Under `Cc1nc2c(Nc3ccc(-c4nn(C)c(C)c4C)cc3S(C)(=O)=O)cc(NC(=O)C3CC3)nc2[nH]1` [I-560, N-(2-methyl-7-((2-(methylsulfonyl)-4-(1,4,5-trimethyl-1H-pyrazol-3-yl)phenyl)amino)-3H-imidazo[4,5-b]pyridin-5-yl)cyclopropanecarboxamide] stands under 0.1 nM; under `Cc1nc2c(Nc3ccc(-c4oc(C)cc4C)cc3S(C)(=O)=O)cc(NC(=O)C3CC3)nc2[nH]1` [I-561, N-(7-((4-(3,5-dimethylfuran-2-yl)-2-(methylsulfonyl)phenyl)amino)-2-methyl-3H-imidazo[4,5-b]pyridin-5-yl)cyclopropanecarboxamide], 1 to 10 nM. Take `Cc1nc2c(Nc3ccc(-c4cnn(C5CC5)c4C)cc3S(C)(=O)=O)cc(NC(=O)C3CC3)nc2[nH]1` [I-562, N-(7-((4-(1-cyclopropyl-5-methyl-1H-pyrazol-4-yl)-2-(methylsulfonyl)phenyl)amino)-2-methyl-3H-imidazo[4,5-b]pyridin-5-yl)cyclopropanecarboxamide]: the Kd was under 0.1 nM. In the case of `Cc1cc(Nc2cc(Nc3ccc(C4=NC(C)(C)CS4)cc3S(C)(=O)=O)c3nc(C(F)F)[nH]c3n2)nc(C)n1` [I-563, 2-(difluoromethyl)-N7-(4-(4,4-dimethyl-4,5-dihydrothiazol-2-yl)-2-(methylsulfonyl)phenyl)-N5-(2,6-dimethylpyrimidin-4-yl)-3H-imidazo[4,5-b]pyridine-5,7-diamine], the Kd lay in the range of 1 to 10 nM.
